According to the NIST ThermoML archive (doi:10.1016/j.jct.2007.01.008):
Where “and” joins values, the source holds several entries; their conditions need not be identical. Identical values can stand only once.

Settings: for surface tension liquid-gas: Ring tensiometer; for viscosity / mass density: 101.33 kPa, Liquid; for viscosity: Capillary tube (Ostwald / Ubbelohde) method; for mass density: Vibrating tube method

CCC(=O)CC [pentan-3-one]
Settings | mass density | surface tension liquid-gas [mN/m] | viscosity [mPa·s]
283.15 K | 824.27 kg/m3 | 26.5 | 0.515
285.15 K | 822.28 kg/m3 | 26.3 | 0.507
287.15 K | 820.3 kg/m3 | 26.1 | 0.499
289.15 K | 818.31 kg/m3 | 26 | 0.492
291.15 K | 816.33 kg/m3 | 25.8 | 0.484
292.15 K | – | – | 0.48
293.15 K | 814.34 kg/m3 | 25.6 | 0.476
295.15 K | 812.36 kg/m3 | 25.4 | 0.468
297.15 K | 810.37 kg/m3 | 25.2 | 0.46
298.15 K | 809.25 kg/m3 and 810.86 kg/m3 | – | 0.458
299.15 K | 808.39 kg/m3 | 25 | 0.453
301.15 K | 806.4 kg/m3 | 24.8 | 0.445
303.15 K | 804.42 kg/m3 | 24.6 | 0.437
305.15 K | 802.43 kg/m3 | 24.4 | 0.429
307.15 K | 800.45 kg/m3 | 24.2 | 0.421
309.15 K | 798.46 kg/m3 | 24 | 0.414
311.15 K | 796.48 kg/m3 | 23.8 | 0.406
313.15 K | 794.49 kg/m3 | 23.6 | 0.398
315.15 K | 792.51 kg/m3 | 23.4 | 0.39
317.15 K | 790.52 kg/m3 | 23.3 | 0.382
319.15 K | 788.54 kg/m3 | 23.1 | 0.375
321.15 K | 786.55 kg/m3 | 22.9 | 0.367
323.15 K | 784.57 kg/m3 | 22.7 | 0.359
325.15 K | 782.59 kg/m3 | 22.5 | 0.351
327.15 K | 780.6 kg/m3 | 22.3 | 0.343
329.15 K | 778.62 kg/m3 | 22.1 | 0.336
